Converted amounts (≈) assume the structure as drawn. Where two headings read alike, the source gives them in different places.
Key:
Assay type in all cases: cell-based
H. influenzae 30063 = assay: MIC by agar dilution, H. influenzae 30063
Text: (§1) The in vitro activity of compounds of the subject invention may be assessed by standard testing procedures such as the determination of minimum inhibitory concentration (MIC) by agar dilution as described in “Approved Standard. Methods for Dilution Antimicrobial Susceptibility Tests for Bacteria that Grow Aerobically,” 3rd ed., published 1993 by the National Committee for Clinical Laboratory standards, Villanova, Pa., USA.
(§2) The in vitro MICs of test compounds may be determined by a standard agar dilution method. A stock drug solution of each analog is prepared in a preferred solvent, usually DMSO:H2O (1:3). Serial 2-fold dilutions of each sample are made using 1.0 ml aliquots of sterile distilled water. To each 1.0 ml aliquot of drug is added 9 ml of molten Mueller Hinton agar medium. The drug-supplemented agar is mixed, poured into 15×100 mm petri dishes, and allowed to solidify and dry prior to inoculation.
(§3) Vials of each of the test organisms are maintained frozen in the vapor phase of a liquid nitrogen freezer. Test cultures are grown overnight at 35° C. on the medium appropriate for the organism. Colonies are harvested with a sterile swab, and cell suspensions are prepared in Trypticase Soy broth (TSB) to equal the turbidity of a 0.5 McFarland standard. A 1:20 dilution of each suspension is made in TSB. The plates containing the drug supplemented agar are inoculated with a 0.001 ml drop of the cell suspension using a Steers replicator, yielding approximately 10^4 to 10^5 cells per spot. The plates are incubated overnight at 35° C.
(§4) Following incubation the Minimum Inhibitory Concentration (MIC μg/ml), the lowest concentration of drug that inhibits visible growth of the organism, is read and recorded.
(§5) The in vitro MICs of test compounds were determined by a standard agar dilution method. A stock drug solution of each analog was prepared in the preferred solvent, usually DMSO:H2O (1:3). Serial 2-fold dilutions of each sample are made using 1.0 ml aliquots of sterile distilled water. To each 1.0 ml aliquot of drug was added 9 ml of molten Mueller Hinton agar medium The drug-supplemented agar was mixed, poured into 15×100 mm petri dishes, and allowed to soldify and dry prior to inoculation.
(§6) Vials of each of the test organisms are maintained frozen in the vapor phase of a liquid nitrogen freezer. Test cultures are grown overnight at 35° C. on the medium appropriate for the organism. Colonies are harvested with a sterile swab, and cell suspensions are prepared in Trypticase Soy broth (TSB) to equal the turbidity of a 0.5 McFarland standard. A 1:20 dilution of each suspension was made in TSB. The plates containing the drug supplemented agar are inoculated with a 0.001 ml drop of the cell suspension using a Steers replicator, yielding approximately 10^4 to 10^5 cells per spot. The plates are incubated overnight at 35° C. Following incubation the Minimum Inhibitory Concentration (MIC μg/ml), the lowest concentration of drug that inhibits visible growth of the organism, was read and recorded.

S. aureus UC9213 = assay: MIC by agar dilution, S. aureus UC9213; settings: Staphylococcus aureus
Text: as §1, §2, §3, §4, §5, §6

S. pneumoniae UC9912 = assay: MIC by agar dilution, S. pneumoniae UC9912; settings: Streptococcus pneumoniae
Text: as §1, §2, §3, §4, §5, §6

[1] = Haemophilus influenzae, 30063, read-out: MIC against H. influenza (30063)
[2] = Haemophilus influenzae, 30063, agar dilution, Mueller Hinton agar, overnight at 35° C., read-out: H. influenzae 30063 MIC
[3] = UC9213, agar dilution, Mueller Hinton agar, overnight at 35° C., read-out: S. aureus UC9213 MIC
[4] = UC9912, agar dilution, Mueller Hinton agar, overnight at 35° C., read-out: S. pneumoniae UC9912 MIC

| SMILES | MIC (H. influenzae 30063; [1]) [µg/mL] | MIC (H. influenzae 30063; [2]) [µg/mL] | MIC (S. aureus UC9213; [3]) [µg/mL] | MIC (S. pneumoniae UC9912; [4]) [µg/mL] | further results |
| --- | --- | --- | --- | --- | --- |
| CC(=O)NC[C@H]1CN(c2cc(F)c(N3C[C@@H]4[C@H](C3)[C@H]4C(=O)N(C)C)c(F)c2)C(=O)O1 [Example 3] | > 64 | – | – | – | – |
| CCN(CC)C(=O)COC(=O)[C@H]1[C@@H]2CN(c3c(F)cc(N4C[C@H](CNC(=O)C(Cl)Cl)OC4=O)cc3F)C[C@@H]21 [Example 13, 2-(diethylamino)-2-oxoethyl exo-(1R,5S)-3-[4-((5S)-5-{[(dichloroacetyl)amino]methyl}-2-oxo-1,3-oxazolidin-3-yl)-2,6-difluorophenyl]-3-azabicyclo[3.1.0]hexane-6-carboxylate] | > 64 | – | – | – | – |
| COC(=O)[C@H]1[C@@H]2CN(c3c(F)cc(N4C[C@H](CNC(=O)C(F)F)OC4=O)cc3F)C[C@@H]21 [Example 16, methyl exo-(1R,5S)-3-[4-((5S)-5-{[(difluoroacetyl)amino]methyl}-2-oxo-1,3-oxazolidin-3-yl)-2,6-difluorophenyl]-3-azabicyclo[3.1.0]hexane-6-carboxylate] | > 64 | – | – | – | – |
| CCN(CC)C(=O)COC(=O)[C@H]1[C@@H]2CN(c3c(F)cc(N4C[C@H](CNC(=O)C(F)F)OC4=O)cc3F)C[C@@H]21 [Example 17] | > 64 | – | – | – | – |
| CC(=O)NC[C@H]1CN(c2cc(F)c(N3C[C@@H]4[C@H](C3)[C@H]4NC(=O)Nc3ccccc3)c(F)c2)C(=O)O1 [Example 28, N-{[(5S)-3-(4-{exo-(1R,5S)-6-[(anilinocarbonyl)amino]-3-azabicyclo[3.1.0]hex-3-yl}-3,5-difluorophenyl)-2-oxo-1,3-oxazolidin-5-yl]methyl}acetamide] | > 64 | – | – | – | – |
| CC(=O)NC[C@H]1CN(c2cc(F)c(N3CC4OC4C3)c(F)c2)C(=O)O1 (stereo partly shown) [Example 40] | – | 8 (≈ 22.6 µM) | 1 (≈ 2.83 µM) | 0.5 (≈ 1.42 µM) | – |
| CCC(=O)NC[C@H]1CN(c2cc(F)c(N3CC4OC4C3)c(F)c2)C(=O)O1 (stereo partly drawn) [Example 41, N-({(5S)-3-[3,5-difluoro-4-(6-oxa-3-azabicyclo[3.1.0]hex-3-yl)phenyl]-2-oxo-1,3-oxazolidin-5-yl}methyl)propanamide] | – | 16 (≈ 43.6 µM) | 2 (≈ 5.44 µM) | 0.5 (≈ 1.36 µM) | – |
| CC(=O)NC[C@H]1CN(c2ccc(N3CC4NC4C3)c(F)c2)C(=O)O1 (stereo partly shown) [Example 49] | – | – | – | – | MIC (H. influenzae 30063; Haemophilus influenzae, 30063, read-out: H. influenzae 30063 MIC, μg/mL): 8 µg/mL (≈ 23.9 µM); MIC (S. aureus UC9213; UC9213, read-out: S. aureus UC9213 MIC, μg/mL): 4 µg/mL (≈ 12 µM); MIC (S. pneumoniae UC9912; UC9912, read-out: S. pneumoniae UC9912 MIC, μg/mL): 0.5 µg/mL (≈ 1.5 µM) |
| CC(=O)NC[C@H]1CN(c2ccc(N3CC4C(C3)N4C(C)=O)c(F)c2)C(=O)O1 (stereo partly drawn) [Example 50, N-({(5S)-3-[4-(6-acetyl-3,6-diazabicyclo[3.1.0]hex-3-yl)-3-fluorophenyl]-2-oxo-1,3-oxazolidin-5-yl]methyl)acetamide] | – | 64 (≈ 170 µM) | 8 (≈ 21.3 µM) | 2 (≈ 5.31 µM) | – |
| COCC(=O)N1C2CN(c3ccc(N4C[C@H](CNC(C)=O)OC4=O)cc3F)CC21 (stereo partly drawn) [Example 51, N-({(5S)-3-[4-(6-methoxyacetyl-3,6-diazabicyclo[3.1.0]hex-3-yl)-3-fluorophenyl]-2-oxo-1,3-oxazolidin-5-yl}methyl)acetamide] | – | 32 (≈ 78.7 µM) | 8 (≈ 19.7 µM) | 2 (≈ 4.92 µM) | – |
| CC(=O)NC[C@H]1CN(c2ccc(N3CC4C(C3)N4C(=O)COC(C)=O)c(F)c2)C(=O)O1 (stereo partly drawn) [Example 52, 2-[3-(4-(5S)-5-[(acetylamino)methyl]-2-oxo-1,3-oxazolidin-3-yl}2-fluorophenyl)-3,6-diazabicyclo[3.1.0]hex-6-yl]-2-oxoethyl acetate] | – | 32 | 1 | 1 | – |
| CC(=O)NC[C@H]1CN(c2ccc(N3CCOCC3)c(F)c2)C(=O)O1 [linezolid, reference compound] | 16 (≈ 47.4 µM) | – | – | – | MIC (S. pneumoniae UC9912; UC9912, read-out: MIC against S. pneumoniae (UC 9912)): 1 µg/mL (≈ 2.96 µM) |

Reference: patent publication US6875784B2, “Antimibicrobial [3.1.0.] bicyclic oxazolidinone derivatives” (priority 2002, dated 2005)
